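1) Cells in 96-well plates. 2) Compound, 48 h, 5 concentrations. 3) Linear interpolation between surrounding doses. 4) Unreached endpoint = highest concentration. GI50 is the concentration that inhibits growth by half. Definition used: TGI = concentration required for complete inhibition of growth.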
Legend:
Test in all cases: inhibition of tumour cell growth, NCI panel, 48 h
786-0 renal = test system: 786-0 renal
A498 renal = test system: A498 renal
A549 NSCLC = test system: A549 NSCLC
ACHN renal = test system: ACHN renal
CAKI-1 renal = test system: CAKI-1 renal
CCRF-CEM leukemia = test system: CCRF-CEM leukemia
COLO 205 colon = test system: COLO 205 colon
DLD-1 colon = test system: DLD-1 colon
DMS 114 small cell lung = test system: DMS 114 small cell lung
HCC-2998 colon = test system: HCC-2998 colon
HCT-116 colon = test system: HCT-116 colon
HCT-15 colon = test system: HCT-15 colon
HL-60(TB) leukemia = test system: HL-60(TB) leukemia
HOP-18 NSCLC = test system: HOP-18 NSCLC
HOP-62 NSCLC = test system: HOP-62 NSCLC
HOP-92 NSCLC = test system: HOP-92 NSCLC
HT29 colon = test system: HT29 colon
IGROV1 ovarian = test system: IGROV1 ovarian
K-562 leukemia = test system: K-562 leukemia
KM12 colon = test system: KM12 colon
KM20L2 colon = test system: KM20L2 colon
LOX IMVI melanoma = test system: LOX IMVI melanoma
LXFL 529 NSCLC = test system: LXFL 529 NSCLC
M14 melanoma = test system: M14 melanoma
M19-MEL melanoma = test system: M19-MEL melanoma
MOLT-4 leukemia = test system: MOLT-4 leukemia
NCI-H226 lung = test system: NCI-H226 lung
NCI-H23 lung = test system: NCI-H23 lung
NCI-H460 lung = test system: NCI-H460 lung
NCI-H522 lung = test system: NCI-H522 lung
OVCAR-3 ovarian = test system: OVCAR-3 ovarian
OVCAR-4 ovarian = test system: OVCAR-4 ovarian
OVCAR-5 ovarian = test system: OVCAR-5 ovarian
OVCAR-8 ovarian = test system: OVCAR-8 ovarian
RPMI-8226 leukemia = test system: RPMI-8226 leukemia
RXF 393 renal = test system: RXF 393 renal
SF-268 CNS = test system: SF-268 CNS
SF-295 CNS = test system: SF-295 CNS
SF-539 CNS = test system: SF-539 CNS
SK-MEL-2 melanoma = test system: SK-MEL-2 melanoma
SK-MEL-28 melanoma = test system: SK-MEL-28 melanoma
SK-MEL-5 melanoma = test system: SK-MEL-5 melanoma
SK-OV-3 ovarian = test system: SK-OV-3 ovarian
SN12C renal = test system: SN12C renal
SNB-75 CNS = test system: SNB-75 CNS
SNB-78 CNS = test system: SNB-78 CNS
SR leukemia = test system: SR leukemia
SW-620 colon = test system: SW-620 colon
TK-10 renal = test system: TK-10 renal
U251 CNS = test system: U251 CNS
UACC-257 melanoma = test system: UACC-257 melanoma
UACC-62 melanoma = test system: UACC-62 melanoma
UO-31 renal = test system: UO-31 renal
EKVX NSCLC = test system: EKVX NSCLC
MALME-3M melanoma = test system: MALME-3M melanoma
SNB-19 CNS = test system: SNB-19 CNS

NCCN.NCCN.O=C[O-].O=C[O-].[Co+3].[O-][Cl+3]([O-])([O-])[O-]
GI50 (786-0 renal): > 100 µM | TGI (786-0 renal): > 100 µM | GI50 (A498 renal): > 100 µM | TGI (A498 renal): > 100 µM | GI50 (A549 NSCLC): > 100 µM | TGI (A549 NSCLC): > 100 µM | GI50 (ACHN renal): > 100 µM | TGI (ACHN renal): > 100 µM | GI50 (CAKI-1 renal): > 100 µM | TGI (CAKI-1 renal): > 100 µM | GI50 (CCRF-CEM leukemia): > 100 µM | TGI (CCRF-CEM leukemia): > 100 µM | GI50 (COLO 205 colon): > 100 µM | TGI (COLO 205 colon): > 100 µM | GI50 (DLD-1 colon): > 100 µM | TGI (DLD-1 colon): > 100 µM | GI50 (DMS 114 small cell lung): > 100 µM | TGI (DMS 114 small cell lung): > 100 µM | GI50 (HCC-2998 colon): > 100 µM | TGI (HCC-2998 colon): > 100 µM | GI50 (HCT-116 colon): > 100 µM | TGI (HCT-116 colon): > 100 µM | GI50 (HCT-15 colon): > 100 µM | TGI (HCT-15 colon): > 100 µM | GI50 (HL-60(TB) leukemia): > 100 µM | TGI (HL-60(TB) leukemia): > 100 µM | GI50 (HOP-18 NSCLC): > 100 µM | TGI (HOP-18 NSCLC): > 100 µM | GI50 (HOP-62 NSCLC): > 100 µM | TGI (HOP-62 NSCLC): > 100 µM | GI50 (HOP-92 NSCLC): > 100 µM | TGI (HOP-92 NSCLC): > 100 µM | GI50 (HT29 colon): > 100 µM | TGI (HT29 colon): > 100 µM | GI50 (IGROV1 ovarian): > 100 µM | TGI (IGROV1 ovarian): > 100 µM | GI50 (K-562 leukemia): > 100 µM | TGI (K-562 leukemia): > 100 µM | GI50 (KM12 colon): > 100 µM | TGI (KM12 colon): > 100 µM | GI50 (KM20L2 colon): > 100 µM | TGI (KM20L2 colon): > 100 µM | GI50 (LOX IMVI melanoma): > 100 µM | TGI (LOX IMVI melanoma): > 100 µM | GI50 (LXFL 529 NSCLC): > 100 µM | TGI (LXFL 529 NSCLC): > 100 µM | GI50 (M14 melanoma): > 100 µM | TGI (M14 melanoma): > 100 µM | GI50 (M19-MEL melanoma): > 100 µM | TGI (M19-MEL melanoma): > 100 µM | GI50 (MOLT-4 leukemia): > 100 µM | TGI (MOLT-4 leukemia): > 100 µM | GI50 (NCI-H226 lung): > 100 µM | TGI (NCI-H226 lung): > 100 µM | GI50 (NCI-H23 lung): > 100 µM | TGI (NCI-H23 lung): > 100 µM | GI50 (NCI-H460 lung): > 100 µM | TGI (NCI-H460 lung): > 100 µM | GI50 (NCI-H522 lung): > 100 µM | TGI (NCI-H522 lung): > 100 µM | GI50 (OVCAR-3 ovarian): > 100 µM | TGI (OVCAR-3 ovarian): > 100 µM | GI50 (OVCAR-4 ovarian): > 100 µM | TGI (OVCAR-4 ovarian): > 100 µM | GI50 (OVCAR-5 ovarian): > 100 µM | TGI (OVCAR-5 ovarian): > 100 µM | GI50 (OVCAR-8 ovarian): > 100 µM | TGI (OVCAR-8 ovarian): > 100 µM | GI50 (RPMI-8226 leukemia): > 100 µM | TGI (RPMI-8226 leukemia): > 100 µM | GI50 (RXF 393 renal): > 100 µM | TGI (RXF 393 renal): > 100 µM | GI50 (SF-268 CNS): > 100 µM | TGI (SF-268 CNS): > 100 µM | GI50 (SF-295 CNS): > 100 µM | TGI (SF-295 CNS): > 100 µM | GI50 (SF-539 CNS): > 100 µM | TGI (SF-539 CNS): > 100 µM | GI50 (SK-MEL-2 melanoma): > 100 µM | TGI (SK-MEL-2 melanoma): > 100 µM | GI50 (SK-MEL-28 melanoma): > 100 µM | TGI (SK-MEL-28 melanoma): > 100 µM | GI50 (SK-MEL-5 melanoma): > 100 µM | TGI (SK-MEL-5 melanoma): > 100 µM | GI50 (SK-OV-3 ovarian): > 100 µM | TGI (SK-OV-3 ovarian): > 100 µM | GI50 (SN12C renal): > 100 µM | TGI (SN12C renal): > 100 µM | GI50 (SNB-75 CNS): > 100 µM | TGI (SNB-75 CNS): > 100 µM | GI50 (SNB-78 CNS): > 100 µM | TGI (SNB-78 CNS): > 100 µM | GI50 (SR leukemia): > 100 µM | TGI (SR leukemia): > 100 µM | GI50 (SW-620 colon): > 100 µM | TGI (SW-620 colon): > 100 µM | GI50 (TK-10 renal): > 100 µM | TGI (TK-10 renal): > 100 µM | GI50 (U251 CNS): > 100 µM | TGI (U251 CNS): > 100 µM | GI50 (UACC-257 melanoma): > 100 µM | TGI (UACC-257 melanoma): > 100 µM | GI50 (UACC-62 melanoma): > 100 µM | TGI (UACC-62 melanoma): > 100 µM | GI50 (UO-31 renal): > 100 µM | TGI (UO-31 renal): > 100 µM

O=c1[nH]c2cc([N+](=O)[O-])ccc2nc1/C(=N/Nc1ccccc1)C(O)c1ccc(C(O)/C(=N\Nc2ccccc2)c2cnc3cc([N+](=O)[O-])ccc3n2)cc1 (stereo not drawn)
TGI (786-0 renal): > 100 µM | TGI (A498 renal): > 100 µM | TGI (A549 NSCLC): > 100 µM | TGI (ACHN renal): > 100 µM | TGI (CAKI-1 renal): > 100 µM | TGI (CCRF-CEM leukemia): > 100 µM | TGI (COLO 205 colon): > 100 µM | TGI (DMS 114 small cell lung): > 100 µM | TGI (EKVX NSCLC): > 100 µM | TGI (HCC-2998 colon): 87.1 µM | TGI (HCT-116 colon): > 100 µM | TGI (HL-60(TB) leukemia): > 100 µM | TGI (HOP-62 NSCLC): > 100 µM | TGI (HOP-92 NSCLC): > 100 µM | TGI (HT29 colon): > 100 µM | TGI (IGROV1 ovarian): > 100 µM | TGI (K-562 leukemia): > 100 µM | TGI (KM12 colon): > 100 µM | TGI (KM20L2 colon): > 100 µM | TGI (M14 melanoma): > 100 µM | TGI (M19-MEL melanoma): > 100 µM | TGI (MALME-3M melanoma): > 100 µM | TGI (MOLT-4 leukemia): > 100 µM | TGI (NCI-H23 lung): > 100 µM | TGI (NCI-H460 lung): > 100 µM | TGI (NCI-H522 lung): > 100 µM | TGI (OVCAR-3 ovarian): > 100 µM | TGI (OVCAR-4 ovarian): > 100 µM | TGI (OVCAR-5 ovarian): 72.9 µM | TGI (OVCAR-8 ovarian): > 100 µM | TGI (RPMI-8226 leukemia): > 100 µM | TGI (RXF 393 renal): > 100 µM | TGI (SF-268 CNS): > 100 µM | TGI (SF-295 CNS): > 100 µM | TGI (SF-539 CNS): > 100 µM | TGI (SK-MEL-2 melanoma): > 100 µM | TGI (SK-MEL-28 melanoma): > 100 µM | TGI (SK-MEL-5 melanoma): > 100 µM | TGI (SK-OV-3 ovarian): > 100 µM | TGI (SN12C renal): > 100 µM | TGI (SNB-19 CNS): > 100 µM | TGI (SR leukemia): > 100 µM | TGI (SW-620 colon): > 100 µM | TGI (TK-10 renal): > 100 µM | TGI (UACC-257 melanoma): > 100 µM | TGI (UACC-62 melanoma): > 100 µM | TGI (UO-31 renal): > 100 µM
